Measurements reported in patent publication US20260076948A1, “TREATMENT OF DIABETIC RETINOPATHY USING ENDOTHELIN RECEPTOR ANTAGONISTS” (Perfuse Therapeutics, Inc., priority 2019, published 2026).

Experiments:
[1] = Pharmacokinetics after intravitreal administration in the rabbit; assay type: in vivo, rabbits (Oryctolagus cuniculus); conditions: IVT, plasma and ocular tissues
Procedure: To determine the pharmacokinetic and safety properties of Edonentan following intravitreal administration in the rabbit, rabbits (Oryctolagus cuniculus) received bilateral intravitreal injections (20 μL injection volume/eye). Following the injections, animals were tranquilized with a ketamine/xylazine cocktail, and then the animals were euthanized with an overdose of sodium pentobarbital (Euthasol). Animals designated for the pharmacokinetic analysis were euthanized at different time points (e.g. 12, 16, 24, 36 and 48 hours). At least 1.0 mL of whole blood was drawn from the marginal ear vein or cardiac puncture (terminal bleed only) into K2EDTA tubes for plasma collection and processed for analytical analysis.
Immediately following euthanasia, the eyes was enucleated. Aqueous humor from both eyes was removed via syringe and snap frozen for analysis. Eyes were dissected when frozen to isolate various ocular tissues and minimize drug diffusion to adjacent tissues. Tissues from left and right eyes were collected in separate vials for analysis. List of tissues collected include plasma and aqueous humor, iris/ciliary body (ICB), retina, vitreous humor and RPE/choroid. The pharmacokinetic properties of intravitreally delivered Edonentan in rabbits are shown in FIG. 9A, FIG. 9B, FIG. 9C and FIG. 9D.

[2] = target: T1, ETA (Homo sapiens, UniProt P25101); experiment: Functional potency for ETA receptor; assay type: biochemical
T1 sequence (P25101 21-427): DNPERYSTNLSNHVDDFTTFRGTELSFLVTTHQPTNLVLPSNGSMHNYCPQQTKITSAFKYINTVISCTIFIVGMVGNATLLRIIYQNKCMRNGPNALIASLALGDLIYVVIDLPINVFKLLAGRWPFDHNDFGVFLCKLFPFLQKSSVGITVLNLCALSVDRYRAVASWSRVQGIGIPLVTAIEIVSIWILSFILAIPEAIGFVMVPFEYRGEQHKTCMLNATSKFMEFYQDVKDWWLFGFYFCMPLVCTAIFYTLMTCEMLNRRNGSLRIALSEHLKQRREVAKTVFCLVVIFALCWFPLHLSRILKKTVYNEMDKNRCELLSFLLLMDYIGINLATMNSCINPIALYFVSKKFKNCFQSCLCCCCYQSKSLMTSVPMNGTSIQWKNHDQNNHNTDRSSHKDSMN
Description: (§1) In the above table, the physicochemical data, e.g., solubility, were obtained following standard protocols known in the field (see, e.g., Reis et al., Mini Rev Med Chem., 2010, 10(11):1071-6; Avdeef et al., Expert Opin Drug Metab Toxicol., 2005, 1(2):325-42; Bharate et al., Comb Chem High Throughput Screen., 2016, 19(6):461-9; and Jain et al., J Pharm Biomed Anal., 2013, 86:11-35.); and the biochemical data, i.e., potency for ETA/ETB, were obtained following the protocols known in the field (see, e.g., Kirkby et al., Br J Pharmacol., 2008, 153(6):1105-19; and Maguire et al., Br J Pharmacol., 2014, 171(24):5555-72.).

[3] = Permeability (PAMPA); assay type: in vitro ADME; conditions: PAMPA log Pe and PSA
Description: as §1

[4] = Stability in solid state; assay type: physicochemical; conditions: 2 h@125° C.
Description: as §1

[5] = test system: Morrison's rat model of glaucoma (elevated IOP); experiment: Morrison's rat model of glaucoma (RGC counts, PERG); assay type: in vivo, Brown Norway rats; conditions: topical eye drops 100 μg per dose, five days a week, four weeks
Description: Adult male and female retired breeder Brown Norway rats (approximate age groups of 8 to 11 months) were obtained from Envigo (Indianapolis, IN). Baseline IOP measurements and pattern electroretinogram (PERG) amplitudes were collected prior to the surgery for elevation of IOP (to ensure that the IOP and PERG amplitudes were in the expected range of values). IOP was elevated in one eye (left eye) of the rats, while the corresponding right eyes served as contralateral controls. The Morrison method to elevate IOP in rats was carried out by injection of 50 μL. of hypertonic saline through the episcleral veins to sclerose the trabecular meshwork. IOP was measured twice a week throughout the entire duration of the experiment. […] After detecting an elevation of IOP for two consecutive days, topical administration of eye drops (20 μL (100 μg) per dose of the tested compounds in the IOP elevated eye) was commenced and carried out for five days a week for a total of four weeks. In the 4th week of treatment, PERG analysis was carried out and rats were sacrificed by an overdose of pentobarbital (Fatal-Plus). Aqueous humor was collected from the rat eyes, frozen and shipped for analysis. Retinal flat mounts were prepared, immunostained with the RGC marker, Brn3a antibody and surviving RGCs were counted in two eccentricities (central and peripheral).
For this study, the Morrison's model was used to induce ocular hypertension in adult male retired breeder Brown Norway rats as previously described by Morrison et al., (Morrison J C, Moore C G, Deppmeier L M, Gold B G, Meshul C K, Johnson E C. A rat model of chronic pressure-induced optic nerve damage. Exp Eye Res. 1997; 64(1):85-96).
The immunostained retinal flat mounts were obtained to measure the retinal ganglion cell (RGC) counts. To obtain immunostained retinal flat mounts, the animals were euthanized after the treatments and then their eyes were enucleated. The eye cups were fixed overnight at 4° C. in 4% paraformaldehyde (PFA) and retinal flat mounts were prepared for collecting images. The retinal ganglion cell (RGC) counting was conducted using the images of immunostained retinal flat mounts. The images were uploaded to ImageJ, a photo editor designed for biology research (Rasband, 1997-2018) and the labeled retinal ganglion cells were counted manually in two eccentricities (central and peripheral).
Pattern ERG (PERG) was used to assess the RGC function. […] Briefly, PERG signals were acquired from a DTL-plus electrode placed on the lower part of the corneal surface and the PERG waves were analyzed using the EMWIN software (LKC). The difference between the amplitude of the major positive (P1) and negative (N2) waves were calculated to decipher the PERG amplitude.

[6] = Solubility (pH 2, pH 7, ethyl acetate); assay type: physicochemical
Description: as §1

- t1/2 after intravitreal delivery [1]: longer t1/2
- Functional potency for ETA and ETB receptors, rating in words [2]: High potency
- Specificity ETA versus ETB, rating in words ([2]; ETA vs ETB): High specificity
- Permeability, rating in words [3]: Mid-High
- Stability in Solid State, in words [4]: Stable
- Solubility in Ethyl Acetate, rating in words ([6]; ethyl acetate): Good
- Solubility at pH 2 ([6]; pH 2): <1 μM
- Solubility at pH 7, comparison in words ([6]; pH 7): superior to that of A-182086
SMILES: Cc1onc(NS(=O)(=O)c2ccccc2-c2ccc(-c3ncco3)cc2CN(C)C(=O)CC(C)(C)C)c1C [Edonentan, N-[[2′-[[(4,5-dimethyl-3-isoxazolyl)amino]sulfonyl]-4-(2-oxazolyl)[1,1′-biphenyl]-2-yl]methyl]-N,3,3-trimethylbutanamide]
- Pattern electroretinogram (PERG) changes, RGC function [5]: maintained RGC function
- Retinal ganglion cell (RGC) counts in the peripheral retina [5]: prevented RGC loss
